Experimental data: patent US11541065B2, “Compositions and methods for treating brain injury” (UNM RAINFOREST INNOVATIONS, priority 2018, dated 2023)

Columns and labels:
Type in all cases: cell-based
COX2 = COX2 protein level in rat neuronal cultures (immunoblot); details: for effect on homocysteine-induced increase in COX2 protein level: rat neurons, L-homocysteine 50 μM four hours, with MK801 10 μM, NVP-AAM077 30 nM, Ro 25-6981 1 μM, PD98059 15 μM, SB203580 5 μM or Bengamide B 500 nM
Experimental: Equal protein from total cell lysates obtained from rat and mice neuronal cultures were resolved in 7.5% SDS-PAGE, and subjected to immunoblotting procedure as described earlier (Poddar and Paul, 2009, J Neurochem 110:1095-1106). Blots were analyzed with antibodies as described in each experiment. All primary antibodies (anti-COX2, anti-B-tubulin) and secondary-horse radish peroxidase conjugated antibody concentrations were used according to recommendations provided by the manufacturer. Signals from immune complexes in the blots were developed using West Pico supersignal chemiluminescence reagents and then captured on X-ray films. Densitometric analysis of the images was performed using the Image J software.
Rat and mice neuronal cultures were washed with PBS (pH 7.4), containing sodium pyrophosphate and sodium vanadate as phosphatase inhibitors, and harvested in SDS sample buffer (Laemmli, 1970, Nature 227:680-685). Equal protein from total cell lysates, estimated using BCA kit, was resolved by SDS-PAGE (7.5%) followed by western blotting on PVDF membranes. Immunoblot analysis was performed by first blocking with 5% non-fat dry milk for 1 h at room temperature followed by incubation with either COX2 immunoblot analysis (Poddar and Paul, 2009, J Neurochem 110:1095-1106) as described in each experiment. All primary antibodies and horseradish peroxidase conjugated secondary antibodies were used according to manufacturer's recommendations. Signals from immune complexes in the blots were developed using West Pico supersignal chemiluminescence reagents and then captured on X-ray films. Densitometric analysis of the images was performed using the NIH Image J software.

[1] = system: rat cortical neuronal cultures; experiment: Neuronal cell death by Hoechst DNA staining, rat cortical neuron cultures
Experimental: Neurons were subjected to staining with Hoechst 33342 dye for 15 minutes, washed extensively with PBS, and analyzed using fluorescent microscopy to assess nuclear damage. Imaging was performed with a Zeiss Axiovert 200M fluorescence microscope with attached AxioCam CCD camera using 20× objective lens (Carl Zeiss, Thomwood, N.Y.). To quantitatively assess the percentage of pyknotic nuclei a total of 1000 cells were counted for each set of experiments. Mean±SEM (n=3) were used for statistical comparison using ANOVA (Bonferroni's multiple comparison test). Differences were considered significant when p<0.05.
[…] Glutamate treated cells were then maintained in their original medium for another 17 hours. For some experiments, neurons were treated with L-homocysteine or glutamate in the presence of NVP-AAM077 or PD98059. The neurons were then fixed and stained with Hoechst 33342 dye as previously described (Poddar and Paul, 2009, J Neurochem 110:1095-1106). Percentage of pyknotic nuclei was quantitatively assessed by fluorescent microscopy to determine the extent of neuronal death.

MCP-1 = MCP-1 expression and release from neuron cultures (enzyme immunoassay)
Experimental: (§1) For measurement of cPLA2 activity and MCP-1 levels in cell lysates, neuronal lysates were prepared by harvesting neurons in ice-cold Tris-buffered saline (pH 7.4) containing phosphatase inhibitor, sonicated three times in five-second bursts and placed on ice (two minutes) between each burst of sonication. The lysed cell suspensions were centrifuged at 10,000 rpm (10 minutes) and the supernatant was collected in another tube. Equal amounts of protein from the supernatant were processed for cPLA2 activity assay according to the manufacturer's protocol. Equal protein from the lysates were also used to estimate MCP-1 levels using an MCP-1 ELISA kit.
(§2) For measurement of PGE2 levels and MCP-1 levels released from neurons, culture medium was collected from each experimental plate and centrifuged at 1000 rpm for five minutes to remove cellular debris. Equal volume (100 μl) of the supernatant from each sample was used to determine PGE2 level using the PGE2 ELISA kit according to the manufacturer's instructions.

PGE2 = PGE2 release from rat neuronal cultures (enzyme immunoassay / ELISA of culture media); details: for effect on homocysteine-induced PGE2 release: rat neurons, L-homocysteine 50 μM four hours, with DL-AP5 200 μM, MK801 10 μM, NVP-AAM077 30 nM, Ro 25-6981 1 μM, PD98059 15 μM, SB203580 5 μM, Bengamide B 500 nM or CAY10404 100 nM
Experimental: (§3) Neuron cultures were treated with or without L-homocysteine in the presence or absence of pharmacological inhibitors for the time period specified in each experiment. The medium was collected from each experimental plate and centrifuged at 1000 rpm for five minutes to remove cellular debris. Equal amounts (100 μl) of the supernatant from each sample were used to determine the amount of PGE2 using the PGE2 enzyme immunoassay kit according to the manufacturer's instructions. For measurement of cPLA2 activity, the neuronal cells from the above treated conditions were harvested in ice-cold Tris-buffered saline (pH7.4) containing sodium pyrophosphate as phosphatase inhibitor, sonicated three times with five-second bursts and two minutes on ice between intervals. The lysed cell suspensions were centrifuged at 10,000 rpm for 10 minutes and the supernatant removed. Equal amounts of protein from the supernatant (assessed using BCA protein estimation kit) were estimated for activity of cPLA2 using cPLA2 activity assay kit according to the manufacturer's protocol.
as §2

cPLA2 = cPLA2 activity in rat neuronal lysates (enzymatic assay); details: for effect on homocysteine-mediated increase in cPLA2 activity: rat neurons, L-homocysteine 50 μM four hours, with MK801 10 μM, NVP-AAM077 30 nM, Ro 25-6981 1 μM, PD98059 15 μM or SB203580 5 μM
Experimental: as §3, §1

[2] = cortical neurons, L-homocysteine 50 μM, time course, alone

Structure (SMILES)	effect on homocysteine-induced increase in COX2 protein level (COX2)	effect on homocysteine-induced apoptotic cells ([1]; rat cortical neurons, L-homocysteine 50 μM 24 hours, NVP-AAM077 30 nM)	effect on homocysteine-induced neuronal death ([1]; rat neurons, L-homocysteine 50 μM 18 hours, with NVP-AAM077 30 nM or PD98059 15 μM)	effect on homocysteine-induced expression and release of MCP-1 (MCP-1; L-homocysteine 50 μM four hours, with DL-AP5 200 μM or NVP-AAM077 30 nM)	effect on homocysteine-induced PGE2 release (PGE2)	effect on homocysteine-mediated increase in cPLA2 activity (cPLA2)	COX2 protein levels (COX2; [2])	number of apoptotic cells (pyknotic nuclei) ([1]; rat cortical neurons, L-homocysteine 50 μM, 24 hours, alone vs untreated controls)	cell death (pyknotic nuclei) ([1]; rat neurons, L-homocysteine 50 μM, 18 h, alone)	expression and release of MCP-1 from neurons (MCP-1; L-homocysteine 50 μM, 0, two and four hours, alone)	PGE2 levels released into the medium (PGE2; [2])	cPLA2 activity (cPLA2; primary cortical neurons, L-homocysteine 50 μM, 0-6 hours, alone)
C[C@H](NC(c1cccc2[nH]c(=O)c(=O)[nH]c12)P(=O)(O)O)c1ccc(Br)cc1 (stereo partly drawn) [NVP-AAM077, ({[(1S)-1-(4-bromophenyl)ethyl]amino}-(2,3-dioxo-1,4-dihydroquinoxalin-5-yl)methyl)phosphonic acid]	blocks homocysteine-induced increase in COX2 protein expression	significantly reduced the number of apoptotic cells	Significantly Reduces Homocysteine-Induced Neuronal Death	attenuates the expression and release of MCP-1	significantly reduced	inhibits homocysteine-mediated increase in cPLA2 activity						
C[C@@H](CN1CCC(Cc2ccccc2)CC1)[C@@H](O)c1ccc(O)cc1 [Ro 25-6981]	fails to ameliorate homocysteine-induced increase in COX2 protein level				fails to alter homocysteine-induced increase in PGE2 level	fails to attenuate homocysteine-mediated increase in cPLA2 activity						
N[C@@H](CCS)C(=O)O [L-homocysteine]							progressive increase in COX2 protein levels	significant increase in the number of apoptotic cells	significant increase in cell death	progressive increase in expression and release	significant increase in PGE2 levels within two hours	significantly increases cPLA2 activity with time
